Results taken from US20150011466A1, “APJ Receptor Compounds” (priority 2012, published 2015).
Where two headings read alike, the source gives them in different places. Where a SMILES comes first, the peptide text is derived from it. [ ]: non-standard residue; d: D form. The star is where a group is joined. Palmitoyl = CCCCCCCCCCCCCCCC(=O)*; Aib = CC(C)(N)C(=O)O

Tests used:
APJ receptor = target: T1, APJ receptor (Homo sapiens, UniProt P35414); assay: HTRF cAMP assay, inhibition of NKH477 stimulated cAMP in Human TRex cells expressing APJ upon doxycycline induction (APJ-hTREX); format: cell-based; conditions: for percent intrinsic activity at 0.3 µM: read-out: % IA (@ 300 nM); for Ranking: class combining EC50 and % histamine
T1 construct: expressed in transfected cells; host or cells: Human TRex cells (doxycycline-inducible)
T1 sequence (P35414 1-380): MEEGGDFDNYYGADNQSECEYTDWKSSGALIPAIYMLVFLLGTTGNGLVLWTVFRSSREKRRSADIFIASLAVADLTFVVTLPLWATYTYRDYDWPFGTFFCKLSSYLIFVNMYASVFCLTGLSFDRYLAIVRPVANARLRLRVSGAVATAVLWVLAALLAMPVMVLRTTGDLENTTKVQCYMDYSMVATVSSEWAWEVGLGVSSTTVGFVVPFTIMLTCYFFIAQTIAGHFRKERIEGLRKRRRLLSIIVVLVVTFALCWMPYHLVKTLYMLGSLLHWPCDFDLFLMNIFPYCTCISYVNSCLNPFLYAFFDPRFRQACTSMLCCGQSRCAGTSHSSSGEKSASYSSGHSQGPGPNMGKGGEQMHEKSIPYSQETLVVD
Outline: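 Cells stimulated with NKH477 and cAMP measured by HTRF competitive immunoassay (cryptate anti-cAMP antibody, d2-labeled cAMP). APJ-hTREX cells induced with […] doxycycline and seeded overnight at 40 k/well.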

Row | SMILES | Histimine (% vs. 48/40) (Histimine (% vs. 48/40)) [%] | percent intrinsic activity at 0.3 µM (APJ receptor) [%] | Ranking (APJ receptor) | EC50 (APJ receptor; inhibition of NKH477 stimulated cAMP, APJ-hTREX cells, read-out: APJ-hTREX EC50) [nM] | EC50 (APJ receptor) [nM]
1 | CCCCCCCCCCCCCCCC(=O)N[C@H](C(=O)N[C@H](C(=O)N[C@@H](Cc1ccccc1)C(=O)N[C@@H](CCCNC(=N)N)C(=O)N[C@@H](CO)C(=O)N[C@@H](CO)C(=O)N[C@@H](CCC(=O)O)C(=O)N[C@H](CCCCN)C(=O)N[C@@H](CCCNC(=N)N)C(=O)N[C@@H](CCCNC(=N)N)C(=O)N[C@@H](CO)C(=O)NC(C)(C)C(=O)N[C@@H](CC(=O)O)C(=O)N[C@H](C(=O)N[C@@H](Cc1ccccc1)C(=O)N[C@H](C(N)=O)[C@@H](C)CC)[C@@H](C)CC)C(C)C)[C@@H](C)O [Compound 64, TVFRSSEkRRS(Aib)DIFI] (Palmitoyl-TVFRSSE[dK]RRS[Aib]DIFI-NH2) | 105 | 60 | – | – | –
2 | CCCCCCCCCCCCCCCC(=O)N[C@H](C(=O)N[C@H](C(=O)N[C@@H](Cc1ccccc1)C(=O)N[C@@H](CCCNC(=N)N)C(=O)N[C@@H](CO)C(=O)N[C@@H](CO)C(=O)N[C@@H](CCC(=O)O)C(=O)N[C@H](CCCCN)C(=O)N[C@@H](CCCNC(=N)N)C(=O)N[C@@H](CCCNC(=N)N)C(=O)N[C@@H](CO)C(=O)N[C@@H](C)C(=O)NC(C)(C)C(=O)N[C@H](C(=O)N[C@@H](Cc1ccccc1)C(=O)N[C@H](C(N)=O)[C@@H](C)CC)[C@@H](C)CC)C(C)C)[C@@H](C)O [Compound 65, TVFRSSEkRRSA(Aib)IFI] (Palmitoyl-TVFRSSE[dK]RRSA[Aib]IFI-NH2) | 100 | 45 | – | – | –
3 | CCCCCCCCCCCCCCCC(=O)N[C@H](C(=O)N[C@H](C(=O)N[C@@H](Cc1ccccc1)C(=O)N[C@@H](CCCNC(=N)N)C(=O)N[C@@H](CO)C(=O)N[C@@H](CO)C(=O)N[C@@H](CCC(=O)O)C(=O)N[C@H](CCCCN)C(=O)N[C@@H](CCCNC(=N)N)C(=O)N[C@@H](CCCNC(=N)N)C(=O)N[C@@H](CO)C(=O)N[C@@H](C)C(=O)N[C@@H](CC(=O)O)C(=O)N[C@H](C(=O)NC(C)(C)C(=O)N[C@H](C(N)=O)[C@@H](C)CC)[C@@H](C)CC)C(C)C)[C@@H](C)O [Compound 66] (Palmitoyl-TVFRSSE[dK]RRSADI[Aib]I-NH2; C-terminus assumed) | 19 | 47 | **** (EC50 101-500 nM and % histamine<35%) | 173 | –
4 | CCCCCCCCCCCCCCCC(=O)N[C@H](C(=O)N[C@H](C(=O)N[C@@H](Cc1ccccc1)C(=O)N[C@@H](CCCNC(=N)N)C(=O)N[C@@H](CO)C(=O)N[C@@H](CO)C(=O)N[C@@H](CCC(=O)O)C(=O)N[C@H](CCCCN)C(=O)N[C@@H](CCCNC(=N)N)C(=O)N[C@@H](CCCNC(=N)N)C(=O)N[C@@H](CO)C(=O)N[C@@H](C)C(=O)N[C@@H](CC(=O)O)C(=O)N[C@H](C(=O)N[C@@H](Cc1ccccc1)C(=O)NC(C)(C)C(N)=O)[C@@H](C)CC)C(C)C)[C@@H](C)O [Compound 67, TVFRSSEkRRSADIF(Aib)] (Palmitoyl-TVFRSSE[dK]RRSADIF[Aib]-NH2) | 50 | 46 | – | – | –
5 | CCCCCCCCCCCCCCCC(=O)N[C@H](C(=O)NCC(=O)N[C@@H](Cc1ccccc1)C(=O)N[C@@H](CCCNC(=N)N)C(=O)N[C@@H](CO)C(=O)N[C@@H](CO)C(=O)N[C@@H](CCC(=O)O)C(=O)N[C@H](CCCCN)C(=O)N[C@@H](CCCNC(=N)N)C(=O)N[C@@H](CCCNC(=N)N)C(=O)N[C@@H](CO)C(=O)N[C@@H](C)C(=O)N[C@@H](CC(=O)O)C(=O)N[C@H](C(=O)N[C@@H](Cc1ccccc1)C(=O)N[C@H](C(N)=O)[C@@H](C)CC)[C@@H](C)CC)[C@@H](C)O [Compound 69] (Palmitoyl-TGFRSSE[dK]RRSADIFI-NH2; C-terminus assumed) | 50 | 77 | *** (EC50<100 nM and % histamine>35%) | – | 38.1
6 | CCCCCCCCCCCCCCCC(=O)N[C@H](C(=O)N[C@H](C(=O)N[C@@H](Cc1ccccc1)C(=O)NCC(=O)N[C@@H](CO)C(=O)N[C@@H](CO)C(=O)N[C@@H](CCC(=O)O)C(=O)N[C@H](CCCCN)C(=O)N[C@@H](CCCNC(=N)N)C(=O)N[C@@H](CCCNC(=N)N)C(=O)N[C@@H](CO)C(=O)N[C@@H](C)C(=O)N[C@@H](CC(=O)O)C(=O)N[C@H](C(=O)N[C@@H](Cc1ccccc1)C(=O)N[C@H](C(N)=O)[C@@H](C)CC)[C@@H](C)CC)C(C)C)[C@@H](C)O [Compound 71] (Palmitoyl-TVFGSSE[dK]RRSADIFI-NH2; C-terminus assumed) | 6 | 65 | **** (EC50 101-500 nM and % histamine<35%) | – | 111
7 | CCCCCCCCCCCCCCCC(=O)N[C@H](C(=O)N[C@H](C(=O)N[C@@H](Cc1ccccc1)C(=O)N[C@@H](CCCNC(=N)N)C(=O)NCC(=O)N[C@@H](CO)C(=O)N[C@@H](CCC(=O)O)C(=O)N[C@H](CCCCN)C(=O)N[C@@H](CCCNC(=N)N)C(=O)N[C@@H](CCCNC(=N)N)C(=O)N[C@@H](CO)C(=O)N[C@@H](C)C(=O)N[C@@H](CC(=O)O)C(=O)N[C@H](C(=O)N[C@@H](Cc1ccccc1)C(=O)N[C@H](C(N)=O)[C@@H](C)CC)[C@@H](C)CC)C(C)C)[C@@H](C)O [Compound 72] (Palmitoyl-TVFRGSE[dK]RRSADIFI-NH2; C-terminus assumed) | 44 | 75 | ** (EC50 101-500 nM and % histamine>35%) | – | 134
8 | CCCCCCCCCCCCCCCC(=O)N[C@H](C(=O)N[C@H](C(=O)N[C@@H](Cc1ccccc1)C(=O)N[C@@H](CCCNC(=N)N)C(=O)N[C@@H](CO)C(=O)N[C@@H](CO)C(=O)N[C@@H](CCC(=O)O)C(=O)N[C@H](CCCCN)C(=O)N[C@@H](CCCNC(=N)N)C(=O)NCC(=O)N[C@@H](CO)C(=O)N[C@@H](C)C(=O)N[C@@H](CC(=O)O)C(=O)N[C@H](C(=O)N[C@@H](Cc1ccccc1)C(=O)N[C@H](C(N)=O)[C@@H](C)CC)[C@@H](C)CC)C(C)C)[C@@H](C)O [Compound 76] (Palmitoyl-TVFRSSE[dK]RGSADIFI-NH2) | 25 | 46 | – | – | –
9 | CCCCCCCCCCCCCCCC(=O)N[C@H](C(=O)N[C@H](C(=O)N[C@@H](Cc1ccccc1)C(=O)N[C@@H](CCCNC(=N)N)C(=O)N[C@@H](CO)C(=O)N[C@@H](CO)C(=O)N[C@@H](CCC(=O)O)C(=O)N[C@H](CCCCN)C(=O)N[C@@H](CCCNC(=N)N)C(=O)N[C@@H](CCCNC(=N)N)C(=O)NCC(=O)N[C@@H](C)C(=O)N[C@@H](CC(=O)O)C(=O)N[C@H](C(=O)N[C@@H](Cc1ccccc1)C(=O)N[C@H](C(N)=O)[C@@H](C)CC)[C@@H](C)CC)C(C)C)[C@@H](C)O [Compound 77] (Palmitoyl-TVFRSSE[dK]RRGADIFI-NH2) | 53 | 64 | – | – | –
10 | CCCCCCCCCCCCCCCC(=O)N[C@H](C(=O)N[C@H](C(=O)N[C@@H](Cc1ccccc1)C(=O)N[C@@H](CCCNC(=N)N)C(=O)N[C@@H](CO)C(=O)N[C@@H](CO)C(=O)N[C@@H](CCC(=O)O)C(=O)N[C@H](CCCCN)C(=O)N[C@@H](CCCNC(=N)N)C(=O)N[C@@H](CCCNC(=N)N)C(=O)N[C@@H](CO)C(=O)N[C@@H](C)C(=O)NCC(=O)N[C@H](C(=O)N[C@@H](Cc1ccccc1)C(=O)N[C@H](C(N)=O)[C@@H](C)CC)[C@@H](C)CC)C(C)C)[C@@H](C)O [Compound 78] (Palmitoyl-TVFRSSE[dK]RRSAGIFI-NH2) | 62 | 60 | – | – | –
11 | CCCCCCCCCCCCCCCC(=O)N[C@H](C(=O)N[C@H](C(=O)N[C@@H](Cc1ccccc1)C(=O)N[C@@H](CCCNC(=N)N)C(=O)N[C@@H](CO)C(=O)N[C@@H](CO)C(=O)N[C@@H](CCC(=O)O)C(=O)N[C@H](CCCCN)C(=O)N[C@@H](CCCNC(=N)N)C(=O)N[C@@H](CCCNC(=N)N)C(=O)N[C@@H](CO)C(=O)N[C@@H](C)C(=O)N[C@@H](CC(=O)O)C(=O)N[C@H](C(=O)NCC(=O)N[C@H](C(N)=O)[C@@H](C)CC)[C@@H](C)CC)C(C)C)[C@@H](C)O [Compound 79] (Palmitoyl-TVFRSSE[dK]RRSADIGI-NH2) | 43 | 39 | – | – | –
12 | CCCCCCCCCCCCCCCC(=O)N[C@H](C(=O)N[C@H](C(=O)N[C@@H](Cc1ccccc1)C(=O)N[C@@H](CCCNC(=N)N)C(=O)N[C@@H](CO)C(=O)N[C@@H](CO)C(=O)N[C@@H](CCC(=O)O)C(=O)N[C@H](CCCCN)C(=O)N[C@@H](CCCNC(=N)N)C(=O)N[C@@H](CCCNC(=N)N)C(=O)N[C@@H](CO)C(=O)N[C@@H](C)C(=O)N[C@@H](CC(=O)O)C(=O)N[C@H](C(=O)N[C@@H](Cc1ccccc1)C(=O)NCC(N)=O)[C@@H](C)CC)C(C)C)[C@@H](C)O [Compound 80] (Palmitoyl-TVFRSSE[dK]RRSADIFG-NH2) | 52 | 35 | – | – | –
